Patent US20240114940A1, “SACCHARIDE COMPOSITIONS HAVING SUCROSE-LIKE CHARACTERISTICS AND RELATED METHODS” (priority 2021, published 2024)

Assay: Heating of saccharide solutions in an open system (observation, ion-exchange chromatography)
Format: physicochemical
Method: The following steps were performed to observe the impact of heat and pH on xylo-oligosaccharides: • 1. Four saccharide solutions comprising xylo-oligosaccharides of primarily degree of polymerization (DP) 2-6 (XOS) were created by dissolving saccharides in water, some solutions including an acidity regulator. The four solutions were: • a. XOS in water, pH 7 • b. XOS in water, pH 7 • c. XOS in water and lemon juice, pH 2 • d. XOS in water and baking soda, pH 9 • 2. The four solutions were heated, and the resulting products analyzed. For the four solutions: • a. XOS in water at pH 7 was heated to 110° C. (FIG. 1A). The solution was yellow when dissolved in water, and sticky, dissolving around 60° C. The solution formed soft, sticky threads at 110° C. […] XOS in water at pH 7 was heated to 177° C. (FIG. 1B). The solution got very dark at 177° C. and smelled burnt. The solution began darkening in color around 120° C., with the darkest color formation beginning at 150° C. The solution formed a hard crack consistency at 177° C. When water was added, the hard crack consistency re-dissolved slowly. • c. XOS in water and lemon juice at pH 2 was heated to 177° C. (FIG. 1C). This solution behaved the same as solution (b). • d. […]
The following steps were performed to observe the impact of heat and pH on cello-oligosaccharide: • 1. […] The four solutions were heated, and the resulting products analyzed. […]

## OC[C@H]1O[C@@](CO)(O[C@H]2O[C@H](CO)[C@@H](O)[C@H](O)[C@H]2O)[C@@H](O)[C@@H]1O [Sucrose]
177° C. at pH 7 and pH 4, open system
  degradation after heating: degrades
177° C. at pH 10, open system
  degradation after heating: does not degrade
